Data published in patent US10183943B2, “Heterocyclic compounds and their use in preventing or treating bacterial infections” (MUTABILIS, priority 2015, dated 2019).
Read-outs that look alike come from different tables or passages of the source.

Legend:
AmpC (P99) = AmpC (P99) (Enterobacter cloacae, UniProt P05364); test: β-lactamase inhibitory activity, determination of IC50 (nitrocefin hydrolysis)
OXA-48 = molecular target: T1, OXA-48 (Klebsiella pneumoniae, UniProt Q6XEC0); test: as above; assay type: biochemical
T1 construct: made in house; host or cells: E. coli
T1 sequence (Q6XEC0 23-265 limits assumed): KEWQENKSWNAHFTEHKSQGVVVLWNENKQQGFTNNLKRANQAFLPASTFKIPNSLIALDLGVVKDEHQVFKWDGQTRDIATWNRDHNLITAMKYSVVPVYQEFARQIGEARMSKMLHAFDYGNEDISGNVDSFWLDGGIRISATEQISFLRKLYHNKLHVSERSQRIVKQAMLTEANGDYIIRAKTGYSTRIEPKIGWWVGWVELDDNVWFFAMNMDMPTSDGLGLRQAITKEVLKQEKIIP

[1] = system: K. oxytoca UFR21 (TEM-1, CTX-M-15, OXA-48); test: MIC of compounds alone, broth microdilution; assay type: cell-based; conditions: Klebsiella oxytoca, read-out: MIC compounds of the invention alone
How it was run: (§1)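 Cpd alone in DMSO; CAMHB, log-phase inoculum 5×10^5 cfu/mL; 35° C, 16-20 h, ambient air; MIC = lowest conc. with no visible growth (CLSI M7-A7).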

[2] = system: P. aeruginosa CIP107051 (TEM-24); test: MIC of compounds alone, broth microdilution; assay type: cell-based; conditions: Pseudomonas aeruginosa
How it was run: as §1

[3] = system: K. pneumoniae UFR68 (TEM-1, SHV-11, CTX-M-15, KPC-3); test: MIC of compounds alone, broth microdilution; assay type: cell-based; conditions: Klebsiella pneumoniae, read-out: MIC compounds of the invention alone
How it was run: as §1

E. coli RGN238 (OXA-1) = test: MIC of compounds alone, broth microdilution; assay type: cell-based; conditions: Escherichia coli, read-out: MIC compounds of the invention alone
How it was run: as §1

[4] = system: E. cloacae UFR85 (TEM-1, CTX-M-15, AmpC); test: MIC of compounds alone, broth microdilution; assay type: cell-based; conditions: Enterobacter cloacae, read-out: MIC compounds of the invention alone
How it was run: as §1

[5] = system: K. pneumoniae UFR39 (CTX-M-15, NDM-1); test: MIC of compounds alone, broth microdilution; assay type: cell-based; conditions: Klebsiella pneumoniae, read-out: MIC compounds of the invention alone
How it was run: as §1

[6] = system: K. pneumoniae 200047 (TEM-1, SHV-32, CTX-M-15, OXA-1); test: MIC of compounds alone, broth microdilution; assay type: cell-based; conditions: Klebsiella pneumoniae, read-out: MIC compounds of the invention alone
How it was run: as §1

[7] = system: K. pneumoniae UFR24 (TEM-1, SHV-2, SHV-11, OXA-1, OXA-48, OXA-47); test: MIC of compounds alone, broth microdilution; assay type: cell-based; conditions: Klebsiella pneumoniae, read-out: MIC compounds of the invention alone
How it was run: as §1

[8] = system: E. cloacae UFR51 (SHV-12, IMP-8); test: MIC of compounds alone, broth microdilution; assay type: cell-based; conditions: Enterobacter cloacae, read-out: MIC compounds of the invention alone
How it was run: as §1

[9] = system: E. coli UFR61O (TEM-1, KPC-2); test: MIC of compounds alone, broth microdilution; assay type: cell-based; conditions: Escherichia coli, read-out: MIC compounds of the invention alone
How it was run: as §1

[10] = system: K. pneumoniae 6299 (TEM-1, SHV-11, OXA-163); test: MIC of compounds alone, broth microdilution; assay type: cell-based; conditions: Klebsiella pneumoniae, read-out: MIC compounds of the invention alone
How it was run: as §1

[11] = system: E. coli UFR18 (CTX-M-15, OXA-204); test: MIC of compounds alone, broth microdilution; assay type: cell-based; conditions: Escherichia coli, read-out: MIC compounds of the invention alone
How it was run: as §1

[12] = system: K. pneumoniae 160143 (TEM-1, SHV-1, CTX-M-15, KPC-2, OXA-1); test: MIC of compounds alone, broth microdilution; assay type: cell-based; conditions: Klebsiella pneumoniae, read-out: MIC compounds of the invention alone
How it was run: as §1

[13] = system: E. coli UFR32 (TEM-1, VEB-1, OXA-10); test: MIC of compounds alone, broth microdilution; assay type: cell-based; conditions: Escherichia coli, read-out: MIC compounds of the invention alone
How it was run: as §1

[14] = system: E. coli 190317 (TEM-1, SHV-12, CTX-M-15, OXA-1); test: MIC of compounds alone, broth microdilution; assay type: cell-based; conditions: Escherichia coli, read-out: MIC compounds of the invention alone
How it was run: as §1

[15] = system: E. cloacae 260508 (TEM-1, CTX-M-15); test: MIC of compounds alone, broth microdilution; assay type: cell-based; conditions: Enterobacter cloacae, read-out: MIC compounds of the invention alone
How it was run: as §1

[16] = system: E. coli UFR41 (TEM-1, CTX-M-15, CMY-2, OXA-1, NDM-4); test: MIC of compounds alone, broth microdilution; assay type: cell-based; conditions: Escherichia coli, read-out: MIC compounds of the invention alone
How it was run: as §1

[17] = system: E. coli UFR74 (SHV-1, DHA-1); test: MIC of compounds alone, broth microdilution; assay type: cell-based; conditions: Escherichia coli, read-out: MIC compounds of the invention alone
How it was run: as §1

E. cloacae P99 (AmpC) = test: MIC of compounds alone, broth microdilution; assay type: cell-based; conditions: Enterobacter cloacae, read-out: MIC compounds of the invention alone
How it was run: as §1

[18] = system: K. pneumoniae BAA-1898 (TEM-1, SHV-11, SHV-12, KPC-2); test: MIC of compounds alone, broth microdilution; assay type: cell-based; conditions: Klebsiella pneumoniae
How it was run: as §1

[19] = system: E. cloacae UFR70 (TEM-1, CTX-M-15, CMY-2, OXA-1, Porin loss); test: MIC of compounds alone, broth microdilution; assay type: cell-based; conditions: Enterobacter cloacae, read-out: MIC compounds of the invention alone
How it was run: as §1

[20] = system: K. pneumoniae UFR77 (CMY-2); test: MIC of compounds alone, broth microdilution; assay type: cell-based; conditions: Klebsiella pneumoniae, read-out: MIC compounds of the invention alone
How it was run: as §1

[21] = system: E. coli 131119 (TEM-1, OXA-48); test: MIC of compounds alone, broth microdilution; assay type: cell-based; conditions: Escherichia coli, read-out: MIC compounds of the invention alone
How it was run: as §1

KPC-2 = molecular target: T2, KPC-2 (Klebsiella pneumoniae, UniProt Q9F663); test: β-lactamase inhibitory activity, determination of IC50 (nitrocefin hydrolysis); assay type: biochemical
T2 construct: made in house; host or cells: E. coli
T2 sequence (Q9F663 25-293 limits assumed): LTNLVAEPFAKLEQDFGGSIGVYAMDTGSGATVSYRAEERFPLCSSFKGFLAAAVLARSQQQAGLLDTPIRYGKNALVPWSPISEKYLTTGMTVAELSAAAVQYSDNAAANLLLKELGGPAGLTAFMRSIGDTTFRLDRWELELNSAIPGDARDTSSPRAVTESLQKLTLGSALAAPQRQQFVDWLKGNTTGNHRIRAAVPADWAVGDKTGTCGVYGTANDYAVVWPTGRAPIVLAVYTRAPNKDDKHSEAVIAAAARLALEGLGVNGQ

TEM-1 = molecular target: T3, TEM-1 (Escherichia coli, UniProt P62593); test: as above; assay type: biochemical
T3 construct: made in house; host or cells: E. coli
T3 sequence (P62593 24-286 limits assumed): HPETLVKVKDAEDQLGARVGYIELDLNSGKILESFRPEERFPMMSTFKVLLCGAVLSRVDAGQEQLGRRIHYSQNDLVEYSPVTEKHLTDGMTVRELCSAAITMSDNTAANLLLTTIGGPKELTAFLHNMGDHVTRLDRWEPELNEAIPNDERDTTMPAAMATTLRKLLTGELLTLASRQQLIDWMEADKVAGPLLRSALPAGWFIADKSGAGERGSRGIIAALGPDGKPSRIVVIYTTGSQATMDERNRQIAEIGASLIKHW

OXA-11 = molecular target: T4, OXA-11 (Pseudomonas aeruginosa, UniProt Q06778); test: as above; assay type: biochemical
T4 construct: made in house; host or cells: E. coli
T4 sequence (Q06778 21-266): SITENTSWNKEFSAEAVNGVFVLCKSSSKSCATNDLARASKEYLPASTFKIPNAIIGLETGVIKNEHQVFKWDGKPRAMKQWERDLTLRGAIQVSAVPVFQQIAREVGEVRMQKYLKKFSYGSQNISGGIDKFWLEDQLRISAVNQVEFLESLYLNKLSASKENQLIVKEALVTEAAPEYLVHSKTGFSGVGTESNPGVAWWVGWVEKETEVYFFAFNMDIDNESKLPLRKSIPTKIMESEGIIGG

AmpC P. aeruginosa = AmpC P. aeruginosa (Pseudomonas aeruginosa, UniProt P24735); test: as above
Sequence of AmpC P. aeruginosa (P24735 27-397): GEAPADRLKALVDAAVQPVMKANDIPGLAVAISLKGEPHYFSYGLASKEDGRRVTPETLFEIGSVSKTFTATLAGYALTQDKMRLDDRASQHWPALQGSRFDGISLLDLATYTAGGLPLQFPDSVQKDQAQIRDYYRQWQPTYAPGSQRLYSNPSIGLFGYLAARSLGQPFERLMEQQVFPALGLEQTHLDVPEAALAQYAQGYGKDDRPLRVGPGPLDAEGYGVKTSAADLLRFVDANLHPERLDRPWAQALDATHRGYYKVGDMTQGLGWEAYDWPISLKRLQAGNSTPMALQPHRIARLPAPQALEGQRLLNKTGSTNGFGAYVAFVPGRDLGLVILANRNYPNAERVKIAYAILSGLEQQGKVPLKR

CTX-M-15 = molecular target: T5, CTX-M-15 (Escherichia coli, UniProt Q9EXV5); test: as above; assay type: biochemical
T5 construct: made in house; host or cells: E. coli
T5 sequence (Q9EXV5 entry or part of it): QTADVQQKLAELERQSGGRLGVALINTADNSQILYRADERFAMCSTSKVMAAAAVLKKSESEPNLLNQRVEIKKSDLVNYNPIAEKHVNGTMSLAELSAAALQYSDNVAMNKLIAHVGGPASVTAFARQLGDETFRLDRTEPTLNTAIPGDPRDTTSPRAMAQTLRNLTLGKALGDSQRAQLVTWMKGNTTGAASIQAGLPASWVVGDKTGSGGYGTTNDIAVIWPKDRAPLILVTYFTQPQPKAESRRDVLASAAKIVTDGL

OXA-1 = molecular target: T6, OXA-1 (Escherichia coli, UniProt P13661); test: as above; assay type: biochemical
T6 construct: made in house; host or cells: E. coli
T6 sequence (P13661 26-276): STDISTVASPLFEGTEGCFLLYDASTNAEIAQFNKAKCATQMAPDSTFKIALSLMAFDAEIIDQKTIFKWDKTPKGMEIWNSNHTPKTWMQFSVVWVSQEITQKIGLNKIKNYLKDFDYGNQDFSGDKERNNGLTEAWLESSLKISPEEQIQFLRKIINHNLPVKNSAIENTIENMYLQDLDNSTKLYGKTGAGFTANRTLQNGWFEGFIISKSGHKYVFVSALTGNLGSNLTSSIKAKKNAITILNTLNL

OXA-15 = molecular target: T7, OXA-15 (Pseudomonas aeruginosa, UniProt Q51574); test: biochemical
T7 construct: made in house; host or cells: E. coli
T7 sequence (Q51574 22-275): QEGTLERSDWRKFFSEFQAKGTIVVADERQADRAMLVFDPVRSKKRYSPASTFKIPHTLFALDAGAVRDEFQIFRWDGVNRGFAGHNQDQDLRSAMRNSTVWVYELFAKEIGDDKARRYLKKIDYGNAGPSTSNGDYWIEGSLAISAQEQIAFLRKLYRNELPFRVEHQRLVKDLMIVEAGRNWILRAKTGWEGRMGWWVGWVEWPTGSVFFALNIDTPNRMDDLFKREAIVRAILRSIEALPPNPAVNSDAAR

SHV-1 = molecular target: T8, SHV-1 (Klebsiella pneumoniae, UniProt P0AD64); test: β-lactamase inhibitory activity, determination of IC50 (nitrocefin hydrolysis); assay type: biochemical
T8 construct: made in house; host or cells: E. coli
T8 sequence (P0AD64 22-286): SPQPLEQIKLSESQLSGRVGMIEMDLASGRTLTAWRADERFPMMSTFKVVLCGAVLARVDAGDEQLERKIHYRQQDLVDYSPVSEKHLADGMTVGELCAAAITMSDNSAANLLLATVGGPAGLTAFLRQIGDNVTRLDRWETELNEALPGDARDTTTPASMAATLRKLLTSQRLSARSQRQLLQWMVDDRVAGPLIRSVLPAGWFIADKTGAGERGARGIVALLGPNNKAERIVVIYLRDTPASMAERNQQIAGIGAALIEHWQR

[22] = system: E. cloacae UFR51 (SHV-12, IMP-8); test: MIC of ceftazidime (CAZ) in combination with compounds at 4 μg/mL, broth microdilution; assay type: cell-based; conditions: strain UFR51; MIC of CAZ with compound fixed at 4 μg/mL
Protocol: (§2) Method 2: MIC of Compounds and Synergy with Ceftazidime Against Bacterial Isolates (Table 2 and 3)
(§3) Compounds of the present invention were assessed against genotyped bacterial strains alone or in combination with the β-lactam ceftazidime (CAZ). In the assays, MICs of said compounds, or of ceftazidime at fixed concentrations of said compounds were determined by the broth microdilution method according to the Clinical Laboratory Standards Institute (CLSI-M7-A7). Briefly, compounds alone according to the invention were prepared in DMSO and spotted (2 μL each) on sterile polystyrene plates (Corning, 3788). Compounds and ceftazidime dilutions were prepared in DMSO and spotted (1 μL each) on sterile polystyrene plates (Corning, 3788). Log phase bacterial suspensions were adjusted to a final density of 5×10^5 cfu/mL in cation-adjusted Mueller-Hinton broth (Becton-Dickinson) and added to each well (98 μL). Microplates were incubated for 16-20 h at 35° C. in ambient air. The MIC of the compounds was defined as the lowest concentration of said compounds that prevented bacterial growth as read by visual inspection. The MIC of ceftazidime at each compound concentration was defined as the lowest concentration of ceftazidime that prevented bacterial growth as read by visual inspection.

[23] = system: E. coli UFR41 (TEM-1, CTX-M-15, CMY-2, OXA-1, NDM-4); test: as above; assay type: cell-based; conditions: strain UFR41; MIC of CAZ with compound fixed at 4 μg/mL
Protocol: as §2, §3

Sequence of AmpC (P99) (P05364 21-381): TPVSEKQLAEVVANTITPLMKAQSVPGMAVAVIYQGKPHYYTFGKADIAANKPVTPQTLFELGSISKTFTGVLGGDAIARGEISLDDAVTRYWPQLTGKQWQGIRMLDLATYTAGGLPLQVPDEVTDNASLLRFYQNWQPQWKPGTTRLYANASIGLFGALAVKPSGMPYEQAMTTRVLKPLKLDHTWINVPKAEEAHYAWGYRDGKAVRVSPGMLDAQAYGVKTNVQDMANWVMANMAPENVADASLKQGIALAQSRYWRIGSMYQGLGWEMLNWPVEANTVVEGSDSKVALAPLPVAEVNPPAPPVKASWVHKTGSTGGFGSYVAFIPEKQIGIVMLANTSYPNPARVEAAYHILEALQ

In the case of `O=C1N2CC=C(c3cnoc3)C(C2)N1OC(F)(F)C(=O)[O-].[Li+]` (centres unmarked) [Example 6, Lithium difluoro-(4-isoxazol-4-yl-7-oxo-1,6-diaza-bicyclo[3.2.1]oct-3-en-6-yloxy)-acetate], the IC50 (AmpC (P99)) is reported as 1800 nM, the IC50 (OXA-48) is reported as 3.7 nM and the MIC [1] is reported as > 32 µg/mL. For the same compound, the MIC ([2]; CIP107051, read-out: MIC compounds of the invention alone) was > 32 µg/mL, the MIC [3] was > 32 µg/mL and the MIC (E. coli RGN238 (OXA-1)) was 16 µg/mL. The MIC [4] was > 32 µg/mL, the MIC [5] was 4 µg/mL and the MIC [6] was 32 µg/mL. The MIC [7] was > 32 µg/mL, the MIC [8] was 2 µg/mL and the MIC [9] was 8 µg/mL. For the same compound, the MIC [10] was > 32 µg/mL, the MIC [11] was 2 µg/mL and the MIC [12] was > 32 µg/mL. For the same compound, the MIC [13] was 2 µg/mL, the MIC [14] was 2 µg/mL and the MIC [15] was 4 µg/mL. For the same compound, the MIC [16] was > 32 µg/mL, the MIC [17] was > 32 µg/mL and the MIC (E. cloacae P99 (AmpC)) was 4 µg/mL. The MIC ([18]; BAA1898, read-out: MIC compounds of the invention alone) was > 32 µg/mL, the MIC [19] was 16 µg/mL and the MIC [20] was > 32 µg/mL. It also gave an MIC [21] of 4 µg/mL, an IC50 (KPC-2) of 460 nM and an IC50 (TEM-1) of 7.3 nM. The IC50 (OXA-11) was 180 nM, the IC50 (AmpC P. aeruginosa) was 4200 nM and the IC50 (CTX-M-15) was 1.7 nM. For the same compound, the IC50 (OXA-1) was 1700 nM, the IC50 (OXA-15) was 28 nM and the IC50 (SHV-1) was 18 nM.
Work on `O=C1N2CC(c3cccnc3)=CC(C2)N1OS(=O)(=O)[O-].[Na+]` (centres unmarked) [Example 41, Sodium [3-(3-pyridyl)-7-oxo-1,6-diazabicyclo[3.2.1]oct-3-en-6-yl]sulfate] yielded an IC50 (AmpC (P99)) of 40 nM, an IC50 (OXA-48; class (D), nitrocefin 200 μM, 30 min pre-incubation, read-out: IC50 β-lactamase OXA-48) of 1.4 nM and an MIC [1] of 16 µg/mL. The MIC ([2]; strain CIP107051 (P. aeruginosa), read-out: MIC compounds of the invention alone) was > 32 µg/mL, the MIC (E. coli RGN238 (OXA-1); strain RGN238 (E. coli)) was 32 µg/mL and the MIC [4] was 16 µg/mL. The MIC ([5]; strain UFR39 (K. pneumoniae)) was 4 µg/mL, the MIC ([7]; strain UFR24 (K. pneumoniae)) was 16 µg/mL and the MIC ([8]; strain UFR51 (E. cloacae)) was 4 µg/mL. It also gave an MIC ([9]; strain UFR61O (E. coli)) of 16 µg/mL, an MIC ([10]; strain 6299 (K. pneumoniae)) of 16 µg/mL and an MIC ([11]; strain UFR18 (E. coli)) of 4 µg/mL. For the same compound, the MIC ([13]; strain UFR32 (E. coli)) was 8 µg/mL, the MIC [15] was 16 µg/mL and the MIC ([17]; strain UFR74 (E. coli)) was 16 µg/mL. The MIC (E. cloacae P99 (AmpC); strain P99 (E. cloacae)) was 8 µg/mL, the MIC ([18]; BAA1898, strain BAA-1898 (K. pneumoniae), read-out: MIC compounds of the invention alone) was 8 µg/mL and the MIC ([20]; strain UFR77 (K. pneumoniae)) was 8 µg/mL. It also gave an MIC ([21]; strain 131119 (E. coli)) of 4 µg/mL, an IC50 (KPC-2; class (A), nitrocefin 200 μM, 30 min pre-incubation, read-out: IC50 β-lactamase KPC-2) of 9 nM and an IC50 (TEM-1) of 1.8 nM. The IC50 (OXA-11) was 840 nM, the IC50 (AmpC P. aeruginosa) was 190 nM and the “MIC combination of CAZ and compounds of the invention at 4 μg/mL” value [22] was <0.25 µg/mL. The “MIC combination of CAZ and compounds of the invention at 4 μg/mL” value [23] was <0.25 µg/mL, the IC50 (CTX-M-15; class (A), nitrocefin 200 μM, 30 min pre-incubation, read-out: IC50 β-lactamase CTX-M-15) was 2.6 nM and the IC50 (OXA-1; class (D), nitrocefin 200 μM, 30 min pre-incubation, read-out: IC50 β-lactamase OXA-1) was 1400 nM. The IC50 (OXA-15) was 150 nM and the IC50 (SHV-1) was 3.6 nM.
